T1: Solute carrier family 22 member 1 (Homo sapiens, UniProt O15245)
T1 sequence (O15245 whole entry): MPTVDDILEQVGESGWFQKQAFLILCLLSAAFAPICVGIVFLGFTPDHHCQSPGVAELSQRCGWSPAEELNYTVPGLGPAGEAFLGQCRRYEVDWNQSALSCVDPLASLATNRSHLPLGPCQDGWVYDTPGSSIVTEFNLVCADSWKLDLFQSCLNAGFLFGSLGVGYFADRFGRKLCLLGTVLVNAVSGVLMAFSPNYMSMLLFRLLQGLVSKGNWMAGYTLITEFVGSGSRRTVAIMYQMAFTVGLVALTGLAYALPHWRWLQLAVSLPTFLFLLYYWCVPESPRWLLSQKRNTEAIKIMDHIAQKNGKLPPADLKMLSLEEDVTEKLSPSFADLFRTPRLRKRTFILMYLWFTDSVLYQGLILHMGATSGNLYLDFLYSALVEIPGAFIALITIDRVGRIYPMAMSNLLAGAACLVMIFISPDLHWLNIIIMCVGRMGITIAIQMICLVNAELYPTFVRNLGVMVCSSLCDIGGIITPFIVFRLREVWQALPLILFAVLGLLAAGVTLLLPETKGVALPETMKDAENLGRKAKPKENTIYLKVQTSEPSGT

T2: OCT1 (SLC22A1) (Homo sapiens, UniProt O15245)
T2 sequence (O15245 whole entry): T1 sequence (O15245 whole entry)

B1: Solute carrier family 22 member 1 (Homo sapiens) (protein)
chain: T1 sequence (O15245 whole entry)
B2: Solute carrier family 22 member 3 (Homo sapiens) (protein)
chain: MPSFDEALQRVGEFGRFQRRVFLLLCLTGVTFAFLFVGVVFLGTQPDHYWCRGPSAAALAERCGWSPEEEWNRTAPASRGPEPPERRGRCQRYLLEAANDSASATSALSCADPLAAFPNRSAPLVPCRGGWRYAQAHSTIVSEFDLVCVNAWMLDLTQAILNLGFLTGAFTLGYAADRYGRIVIYLLSCLGVGVTGVVVAFAPNFPVFVIFRFLQGVFGKGTWMTCYVIVTEIVGSKQRRIVGIVIQMFFTLGIIILPGIAYFIPNWQGIQLAITLPSFLFLLYYWVVPESPRWLITRKKGDKALQILRRIAKCNGKYLSSNYSEITVTDEEVSNPSFLDLVRTPQMRKCTLILMFAWFTSAVVYQGLVMRLGIIGGNLYIDFFISGVVELPGALLILLTIERLGRRLPFAASNIVAGVACLVTAFLPEGIAWLRTTVATLGRLGITMAFEIVYLVNSELYPTTLRNFGVSLCSGLCDFGGIIAPFLLFRLAAVWLELPLIIFGILASICGGLVMLLPETKGIALPETVDDVEKLGSPHSCKCGRNKKTPVSRSHL

Legend:
[1] = molecular target: T1, Solute carrier family 22 member 1; assay: Inhibition of human OCT1 expressed in HEK293 cells assessed as reduction in ASP+ substrate uptake by microplate reader based analysis; format: cell-based
in vitro = conditions: PAMPA
Description: Passive membrane permeability by LC-MS/MS analysis based PAMPA

OCT1 (SLC22A1) [2] = molecular target: T2, OCT1 (SLC22A1); assay: Substrate activity at human OCT1 expressed in HEK293 cells assessed as increase in compound uptake at 0.05 uM incubated for 2 mins by LC-MS/MS analysis relative to control empty vector transfected cells; format: cell-based; conditions: HEK293 cells that express human OCT1, read-out: FC
OCT1 (SLC22A1) [3] = molecular target: T2, OCT1 (SLC22A1); assay: Substrate activity at human OCT1 expressed in HEK293 cells assessed as increase in compound uptake at 0.1 uM incubated for 2 mins by LC-MS/MS analysis relative to control empty vector transfected cells; format: cell-based; conditions: HEK293 cells that express human OCT1, read-out: FC
OCT1 (SLC22A1) [4] = molecular target: T2, OCT1 (SLC22A1); assay: Substrate activity at human OCT1 expressed in HEK293 cells assessed as increase in compound uptake at 0.5 uM incubated for 2 mins by LC-MS/MS analysis relative to control empty vector transfected cells; format: cell-based; conditions: HEK293 cells that express human OCT1, read-out: FC
[5] = Cmax in human at 80 mg, po dosed as immediate release formulation; format: ADME, organism-based; set-up: dose 80 mg, route oral; conditions: in vivo
[6] = Unbound Cmax in human at 80 mg, po dosed as immediate release formulation; format: ADME, organism-based; conditions: in vivo
[7] = Unbound maximal portal vein concentration of in human at 80 mg, po dosed as immediate release formulation; format: ADME, organism-based; conditions: in vivo
[8] = Ratio of unbound Cmax in human at 80 mg, po dosed as immediate release formulation to inhibition of human OCT1 expressed in HEK293 cells assessed as reduction in ASP+ substrate uptake by microplate reader based analysis; format: ADME, organism-based; conditions: in vivo
[9] = Ratio of unbound maximal portal vein concentration in human at 80 mg, po dosed as immediate release formulation to inhibition of human OCT1 expressed in HEK293 cells assessed as reduction in ASP+ substrate uptake by microplate reader based analysis; format: ADME, organism-based; conditions: in vivo
[10] = Ratio of unbound maximal portal vein concentration in human at 34 mg, iv to inhibition of human OCT1 expressed in HEK293 cells assessed as reduction in ASP+ substrate uptake by microplate reader based analysis; format: ADME, organism-based; conditions: in vivo
[11] = Unbound maximal portal vein concentration of in human at 34 mg, iv; format: ADME, tissue-based; conditions: in vivo
[12] = Ratio of unbound Cmax in human at 34 mg, iv to inhibition of human OCT1 expressed in HEK293 cells assessed as reduction in ASP+ substrate uptake by microplate reader based analysis; format: ADME, organism-based; conditions: in vivo
[13] = Cmax in human at 34 mg, iv; format: ADME; set-up: dose 34 mg, route intravenous; conditions: in vivo
[14] = Unbound Cmax in human at 34 mg, iv; format: ADME; conditions: in vivo
[15] = Ratio of unbound maximal portal vein concentration in human at 86 mg, po dosed as prolonged release formulation to inhibition of human OCT1 expressed in HEK293 cells assessed as reduction in ASP+ substrate uptake by microplate reader based analysis; format: ADME, organism-based; conditions: in vivo
[16] = Ratio of unbound Cmax in human at 86 mg, po dosed as prolonged release formulation to inhibition of human OCT1 expressed in HEK293 cells assessed as reduction in ASP+ substrate uptake by microplate reader based analysis; format: ADME, organism-based; conditions: in vivo
[17] = Unbound Cmax in human at 86 mg, po dosed as prolonged release formulation; format: ADME, organism-based; conditions: in vivo
[18] = Unbound maximal portal vein concentration of in human at 86 mg, po dosed as prolonged release formulation; format: ADME, organism-based; conditions: in vivo
[19] = Cmax in human at 86 mg, po dosed as prolonged release formulation; format: ADME, organism-based; set-up: dose 86 mg, route oral; conditions: in vivo
[20] = Cmax in human at 60 mg, po; format: ADME; set-up: dose 60 mg, route oral; conditions: in vivo
[21] = Unbound Cmax in human at 60 mg, po; format: ADME; conditions: in vivo
[22] = Unbound maximal portal vein concentration of in human at 60 mg, po; format: ADME, tissue-based; conditions: in vivo
[23] = Ratio of unbound Cmax in human at 60 mg, po to inhibition of human OCT1 expressed in HEK293 cells assessed as reduction in ASP+ substrate uptake by microplate reader based analysis; format: ADME, organism-based; conditions: in vivo
[24] = Ratio of unbound maximal portal vein concentration in human at 60 mg, po to inhibition of human OCT1 expressed in HEK293 cells assessed as reduction in ASP+ substrate uptake by microplate reader based analysis; format: ADME, organism-based; conditions: in vivo
[25] = substrate: CNS(=O)(=O)Cc1ccc2[nH]cc(CCN(C)C)c2c1; assay: Substrate activity at human OCT1 expressed in HEK293 cells assessed as increase in compound uptake by measuring Km incubated for 2 mins by LC-MS/MS analysis based Michaelis-Menten plot analysis relative to control empty vector transfected cells; format: cell-based
[26] = substrate: C[N+]1(CC2CC2)CC[C@]23c4c5ccc(O)c4O[C@H]2C(=O)CC[C@@]3(O)[C@H]1C5; assay: Substrate activity at human OCT3 expressed in HEK293 cells assessed as increase in compound uptake by measuring Km incubated for 2 mins by LC-MS/MS analysis based Michaelis-Menten plot analysis relative to control empty vector transfected cells; format: cell-based

Molecule	IC50 [1] [µM]	Papp (in vitro) [×10⁻⁶ cm/s]	uptake ratio at 2 min, 0.05 µM (OCT1 (SLC22A1) [2])	uptake ratio at 2 min, 0.1 µM (OCT1 (SLC22A1) [3])	uptake ratio at 2 min, 0.5 µM (OCT1 (SLC22A1) [4])	other results
CNC[C@H]1CCCC[C@]1(O)c1cccc(OC)c1	55.7	13.4				
CC[C@@H](c1cccc(O)c1)[C@@H](C)CN(C)C [TAPENTADOL]	21.9	13.6	0.9	1.6	1.5	Cmax [5]: 290 nM; fCmax [6]: 0.23 µM; fCmax [7]: 18.58 µM; Ratio [8]: 0.011; Ratio [9]: 0.849; Ratio [10]: 0.371; fCmax [11]: 8.13 µM; Ratio [12]: 0.04; Cmax [13]: 1100 nM; fCmax [14]: 0.88 µM; Ratio [15]: 0.842; Ratio [16]: 0.004; fCmax [17]: 0.08 µM; fCmax [18]: 18.43 µM; Cmax [19]: 100 nM
COc1cccc([C@@]2(O)CCCC[C@@H]2CN(C)C)c1 [(R,R)-TRAMADOL]	88.8	26.9				
Oc1ccc2c(c1)[C@@]13CCCC[C@H]1[C@@H](C2)NCC3 [NORLEVORPHANOL]	24.9 to 25	0.7	14	14.9	17.4	
O=C1CC[C@@]2(O)[C@H]3Cc4ccc(O)c5c4[C@@]2(CCN3CC2CC2)[C@H]1O5 [NALTREXONE]	158	15.1	0.8	0.8	1	
COc1ccc2c3c1O[C@H]1[C@@H](O)C=C[C@H]4[C@@H](C2)N(C)CC[C@@]341 [CODEINE]	236	8	0.7	1	0.8	
CCC1(c2cccc(O)c2)CCCCN(C)C1 (configuration not stated) [MEPTAZINOL]	19	14.3	0.8	2.2	3.2	
CN1CC[C@]23CCCC[C@H]2[C@H]1Cc1ccc(O)cc13 [LEVORPHANOL]	8 to 8.48	9.2	1.5	1.7	1.3	
CCOC(=O)C1(c2ccccc2)CCN(C)CC1 [MEPERIDINE]	22.3	40.2	1.1	1.2	1.2	
CN1CC[C@@]23CCCC[C@@H]2[C@@H]1Cc1ccc(O)cc13 [DEXTRORPHAN]	6 to 6.4	5.4	2.1	1.9	1.5	
COc1ccc2c3c1O[C@H]1C(=O)CC[C@H]4[C@@H](C2)N(C)CC[C@]314 [HYDROCODONE]	537	9.1	0.9	1.6	1.2	
COc1ccc2c3c1O[C@H]1C(=O)CC[C@@]4(O)[C@@H](C2)NCC[C@]314	200	0.9	4	3.9	3.6	
COc1ccc2c(c1)[C@@]13CCCC[C@H]1[C@@H](C2)NCC3	10 to 10.3	17.2	2.5	2.2	2	
CN1CC[C@]23c4c5ccc(O)c4O[C@H]2C(=O)CC[C@@]3(O)[C@H]1C5 [OXYMORPHONE]	250	3.2	2.4	1.3	0.9	
COc1ccc2c(c1)[C@]13CCCC[C@@H]1[C@H](C2)N(C)CC3 [DEXTROMETHORPHAN]	15 to 15.1	63.7	1.1	1.3	0.8	Cmax [20]: 20 nM; fCmax [21]: 0.007 µM; fCmax [22]: 4.57 µM; Ratio [23]: 0.0004; Ratio [24]: 0.302
B1						Km [25]: 55 µM
B2						Km [26]: 22.5 µM; Vmax [26]: 1.75e-05 µmol/min/mg
